In assay [1] the test system is MAC16. The assay can be described thus: Inhibitory activity against MAC16 cell lines. In kind it is functional, cell-based. Conditions: Mus musculus.
The test system of a further assay is MAC13. The assay can be described thus: Inhibitory activity against MAC13 cell lines. It is filed as functional, cell-based. To be noted: Mus musculus.
Assay [2] concerns the target Polyunsaturated fatty acid lipoxygenase ALOX15 (Oryctolagus cuniculus) (UniProt P12530). The assay can be described thus: Inhibition of rabbit reticulocyte 15-lipoxygenase by compound (30 uM).
For assay [3], the system named is MAC16. The assay can be described thus: Effect on metabolism of arachidonic acid for 5-HETE production through 15-LOX (15-lipoxygenase) pathway. In kind it is functional, Mus musculus.
The test system of assay [4] is MAC16. The assay is described as follows: Effect on metabolism of arachidonic acid for 5-HETE production through 5-LOX (5-lipoxygenase) pathway. It is filed as functional, Mus musculus.
The test system of assay [5] is MAC16. The assay can be described thus: Effect on metabolism of arachidonic acid for 5-HETE production through 12-LOX (12-lipoxygenase) pathway. In kind it is functional, Mus musculus.
Assay [6] relates to MAC16. The assay can be described thus: Effect on metabolism of arachidonic acid for 15-HETE production through 15-LOX (15-lipoxygenase) pathway. It is filed as functional, Mus musculus.
Assay [7] relates to MAC16. The assay can be described thus: Effect on metabolism of arachidonic acid for 12-HETE production through 12-LOX (12-lipoxygenase) pathway. In kind it is functional, Mus musculus.

Each structure is given as a SMILES string.

Sequence of Polyunsaturated fatty acid lipoxygenase ALOX15 (Oryctolagus cuniculus) (P12530 whole entry, looked up): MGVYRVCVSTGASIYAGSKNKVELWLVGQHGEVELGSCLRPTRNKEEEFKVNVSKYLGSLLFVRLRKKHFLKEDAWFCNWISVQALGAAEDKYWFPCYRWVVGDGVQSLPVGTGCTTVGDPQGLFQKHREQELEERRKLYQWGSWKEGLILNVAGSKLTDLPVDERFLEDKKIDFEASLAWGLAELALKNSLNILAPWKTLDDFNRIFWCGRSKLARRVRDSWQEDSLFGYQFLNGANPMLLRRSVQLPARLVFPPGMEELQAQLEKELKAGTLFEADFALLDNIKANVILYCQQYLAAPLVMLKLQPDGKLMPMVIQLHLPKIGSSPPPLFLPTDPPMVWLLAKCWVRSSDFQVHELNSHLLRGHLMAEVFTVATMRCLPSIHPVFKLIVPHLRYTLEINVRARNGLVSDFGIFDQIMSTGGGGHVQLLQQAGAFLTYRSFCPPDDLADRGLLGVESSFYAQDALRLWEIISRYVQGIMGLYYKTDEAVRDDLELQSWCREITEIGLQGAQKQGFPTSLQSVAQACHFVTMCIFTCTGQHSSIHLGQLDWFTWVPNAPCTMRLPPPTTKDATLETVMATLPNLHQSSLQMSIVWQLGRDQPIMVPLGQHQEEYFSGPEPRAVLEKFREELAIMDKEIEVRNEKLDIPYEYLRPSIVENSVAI

Take `CCCCCCCc1ccc(C(=O)Nc2ccc(O)c(O)c2)cc1`: the results for the IC50 with MAC16 [1] and with MAC13 were 1000 nM and 900 nM, respectively.
As for `O=C(Nc1ccc(NC(=O)c2ccccc2O)cc1)Nc1ccc(O)c(O)c1`, the inhibition in assay [2] came to 104%.
The same measure, in the same setting: for `O=C(Nc1ccc(O)c(O)c1)c1ccc(NCc2ccccc2O)cc1` the value was 103%.
Consider `COc1ccccc1C(=O)Nc1ccc(CCC(=O)Nc2ccc3c(c2)OC(C)(CCc2ccccc2)O3)cc1` (configuration not stated), for which the IC50 with MAC16 [1] and in the assay with MAC13 was above 50000 nM each time. Besides, the Eicosanoid production in the assay on MAC16 [3] was found to be 91.5 pM 2hr-1; with MAC16 [4], 110 pM 2hr-1; in the assay on MAC16 [5] it was 78 pM 2hr-1.
With `O=C(/C=C/c1ccc(NC(=O)c2ccccc2O)cc1)Nc1ccc(O)c(O)c1`, the results for the IC50 in the assay on MAC16 [1] and in the assay with MAC13 were 300000 nM and 3000 nM, respectively. In addition, the inhibition in assay [2] amounted to 102%.
Take `O=C(Nc1ccc(/N=C(\S)Nc2ccc(O)c(O)c2)cc1)c1ccccc1O`: the inhibition in assay [2] is 103%.
With `O=C(CCc1cccc(NC(=O)c2ccccc2O)c1)Nc1ccc(O)c(O)c1`, the Eicosanoid production in the assay on MAC16 [6] stood at 5.3 pM 2hr-1; in the assay on MAC16 [7], 7.8 pM 2hr-1; with MAC16 [4], 4.7 pM 2hr-1. For the same compound, the IC50 was 2600 nM with MAC16 [1] and 330 nM in the assay with MAC13. For the same compound, in assay [2], the inhibition was 102%.
Take `CC1=C(C)C(=O)C(Cc2cccnc2)=C(C)C1=O`: the IC50 in the assay on MAC16 [1] is 4750 nM; in the assay with MAC13, 6300 nM. Also, the Eicosanoid production with MAC16 [3] was 22.2 pM 2hr-1; in the assay on MAC16 [4] it was 13.3 pM 2hr-1; in the assay with MAC16 [5] it was 15 pM 2hr-1. Moreover, the inhibition in assay [2] came out at 3%.
In the case of `O=C(CCc1ccc(NC(=O)c2ccccc2O)cc1)Nc1ccc(O)c(O)c1`, the inhibition in assay [2] amounted to 99%.
Same read-out and setting: the same measure for `O=C(Nc1ccc(O)c(O)c1)c1ccc(NC(=O)c2ccccc2O)cc1`: 100%.

What is called IC50 is the concentration that inhibits the measured activity by half. A low value points to higher potency. For orientation: inhibition means the drop in the measured response relative to a control, in per cent.

Source of the values: ChEMBL document CHEMBL1136120, “Effect of catechol derivatives on cell growth and lipoxygenase activity” (Bioorg Med Chem Lett, 2003).
